Laboratory results as given in patent US7115664B2, “Peptidomimetic ligands for cellular receptors and ion channels” (Sepracor Inc., priority 2000, dated 2006).

What was measured:
opioid (μ) receptor = opioid (μ) receptor (Homo sapiens, UniProt P35372); assay: Opioid (μ) receptor binding
Description: Another assay useful in the present invention concerns determining the ability of a ligand to bind to a biological receptor utilizing a technique well known in the art referred to as a radioligand binding assay. This assay accurately determines the specific binding of a radioligand to a targeted receptor through the delineation of its total and nonspecific binding components. Total binding is defined as the amount of radioligand that remains following the rapid separation of the radioligand bound in a receptor preparation (cell homogenates or recombinate receptors) from that which is unbound. The nonspecific binding component is defined as the amount of radioligand that remains following separation of the reaction mixture consisting of receptor, radioligand and an excess of unlabeled ligand. Under this condition, the only radioligand that remains represents that which is bound to components other that receptor. The specific radioligand bound is determined by subtracting the nonspecific from total radioactivity bound. For a specific example of radioligand binding assay for μ-opioid receptor, see Wang, J. B. et al. FEBS Letters 1994, 338, 217.
(§1) The opioid (μ) receptor binding capabilities of compounds described herein were determined according to the procedures outlined by Wang et al. (FEBS Letters 1994, 338, 217). The sodium channel receptor binding capabilities of compounds described herein were determined according to the procedures outlined by Catterall et al. (J. Biol. Chem. 1981, 256, 8922). The calcium channel receptor binding capabilities of compounds described herein were determined according to the procedures outlined by Gould et al. (Proc. Natl. Acad. Sci. USA 1982, 79, 3656), Ehlert et al. (Life Sci. 1982, 30, 2191), Reynolds et al. (J. Pharmacol. Exp. Ther. 1986, 237, 731), Moresco et al. (Neurobiology of Aging 1990, II, 433) and Schoemaker et al. (Eur. J. Pharmacol. 1985, III, 273). The potassium channel receptor binding capabilities of compounds described herein were determined according to the procedures outlined by Taylor et al. (J. Biol. Chem. 1984, 259, 13957), Rehm et al. (Proc. Natl. Acad. Sci. USA 1988, 85, 4919), Vasquez et al. (J. Biol. Chem. 1990, 265, 15564) and Mourre et al. (Brain Research 1986, 382, 239).

sodium channel (site 2) = assay: Sodium channel receptor binding (site 2); details: sodium channel site 2 binding; read-out: Na (site 2) (IC50)
Description: as §1

calcium channel (type N) = calcium channel (type N) (Rattus norvegicus, UniProt Q02294); assay: Calcium channel receptor binding, type N; details: read-out: Ca (type N) (IC50)
Sequence of calcium channel (type N) (Q02294 whole entry): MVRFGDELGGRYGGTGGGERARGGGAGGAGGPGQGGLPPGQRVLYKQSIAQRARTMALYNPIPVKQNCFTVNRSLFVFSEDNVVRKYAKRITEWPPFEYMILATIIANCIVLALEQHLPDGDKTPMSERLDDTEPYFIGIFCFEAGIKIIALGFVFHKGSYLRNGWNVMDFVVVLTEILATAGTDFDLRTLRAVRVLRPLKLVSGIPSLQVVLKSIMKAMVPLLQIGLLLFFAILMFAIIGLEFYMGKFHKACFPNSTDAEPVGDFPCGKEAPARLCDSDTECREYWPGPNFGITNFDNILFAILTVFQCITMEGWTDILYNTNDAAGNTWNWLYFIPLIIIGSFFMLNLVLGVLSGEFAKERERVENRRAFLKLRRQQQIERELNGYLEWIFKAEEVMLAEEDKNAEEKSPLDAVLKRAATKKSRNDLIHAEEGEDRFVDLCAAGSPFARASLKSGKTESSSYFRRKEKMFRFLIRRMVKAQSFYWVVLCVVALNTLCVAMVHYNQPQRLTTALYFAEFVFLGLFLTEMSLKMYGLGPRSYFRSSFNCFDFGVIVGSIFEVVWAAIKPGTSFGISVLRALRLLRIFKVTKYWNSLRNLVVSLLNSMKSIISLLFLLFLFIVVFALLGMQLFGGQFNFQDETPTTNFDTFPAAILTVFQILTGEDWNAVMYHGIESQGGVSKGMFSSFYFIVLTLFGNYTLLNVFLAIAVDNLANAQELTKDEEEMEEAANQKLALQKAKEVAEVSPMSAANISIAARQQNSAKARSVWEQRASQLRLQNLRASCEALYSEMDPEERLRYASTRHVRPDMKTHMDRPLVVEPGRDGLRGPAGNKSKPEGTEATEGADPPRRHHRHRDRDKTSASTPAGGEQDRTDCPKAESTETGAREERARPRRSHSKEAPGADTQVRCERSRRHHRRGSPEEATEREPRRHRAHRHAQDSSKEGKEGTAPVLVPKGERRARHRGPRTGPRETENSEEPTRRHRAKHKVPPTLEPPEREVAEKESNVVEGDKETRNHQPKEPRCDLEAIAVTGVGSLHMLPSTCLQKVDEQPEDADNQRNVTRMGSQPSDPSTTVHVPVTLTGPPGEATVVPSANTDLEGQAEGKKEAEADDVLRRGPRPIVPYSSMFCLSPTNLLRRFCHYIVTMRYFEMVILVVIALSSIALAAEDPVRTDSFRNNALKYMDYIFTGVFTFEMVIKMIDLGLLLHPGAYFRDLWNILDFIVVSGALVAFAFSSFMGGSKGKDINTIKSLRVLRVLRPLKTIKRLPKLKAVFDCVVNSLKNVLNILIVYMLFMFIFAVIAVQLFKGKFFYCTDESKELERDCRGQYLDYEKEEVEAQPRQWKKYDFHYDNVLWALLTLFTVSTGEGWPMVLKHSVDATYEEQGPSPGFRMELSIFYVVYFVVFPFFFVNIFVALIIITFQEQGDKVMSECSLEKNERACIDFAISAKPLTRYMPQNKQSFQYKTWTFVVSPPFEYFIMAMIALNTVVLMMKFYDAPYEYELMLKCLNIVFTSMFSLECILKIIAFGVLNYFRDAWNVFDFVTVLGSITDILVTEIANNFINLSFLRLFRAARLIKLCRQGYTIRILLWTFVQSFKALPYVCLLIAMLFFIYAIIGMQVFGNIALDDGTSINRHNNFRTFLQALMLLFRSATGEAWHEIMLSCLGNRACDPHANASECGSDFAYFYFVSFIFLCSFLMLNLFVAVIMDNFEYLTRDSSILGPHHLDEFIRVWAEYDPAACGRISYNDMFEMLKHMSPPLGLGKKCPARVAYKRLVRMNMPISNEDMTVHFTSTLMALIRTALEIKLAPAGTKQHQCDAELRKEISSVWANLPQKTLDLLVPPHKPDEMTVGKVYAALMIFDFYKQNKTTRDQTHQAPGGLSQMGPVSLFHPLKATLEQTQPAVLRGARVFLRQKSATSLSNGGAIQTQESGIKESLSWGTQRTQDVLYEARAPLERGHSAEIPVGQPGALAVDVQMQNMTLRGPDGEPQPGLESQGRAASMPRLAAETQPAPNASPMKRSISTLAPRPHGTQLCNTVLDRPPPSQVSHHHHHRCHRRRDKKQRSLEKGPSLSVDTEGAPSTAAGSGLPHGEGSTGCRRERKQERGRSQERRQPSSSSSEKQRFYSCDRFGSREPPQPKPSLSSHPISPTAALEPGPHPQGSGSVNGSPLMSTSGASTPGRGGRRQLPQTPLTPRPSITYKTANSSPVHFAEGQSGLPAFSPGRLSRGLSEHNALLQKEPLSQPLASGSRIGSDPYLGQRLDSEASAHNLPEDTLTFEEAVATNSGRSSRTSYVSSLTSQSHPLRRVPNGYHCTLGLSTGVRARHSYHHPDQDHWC
Sequence of calcium channel (type N) (P54287 whole entry partner): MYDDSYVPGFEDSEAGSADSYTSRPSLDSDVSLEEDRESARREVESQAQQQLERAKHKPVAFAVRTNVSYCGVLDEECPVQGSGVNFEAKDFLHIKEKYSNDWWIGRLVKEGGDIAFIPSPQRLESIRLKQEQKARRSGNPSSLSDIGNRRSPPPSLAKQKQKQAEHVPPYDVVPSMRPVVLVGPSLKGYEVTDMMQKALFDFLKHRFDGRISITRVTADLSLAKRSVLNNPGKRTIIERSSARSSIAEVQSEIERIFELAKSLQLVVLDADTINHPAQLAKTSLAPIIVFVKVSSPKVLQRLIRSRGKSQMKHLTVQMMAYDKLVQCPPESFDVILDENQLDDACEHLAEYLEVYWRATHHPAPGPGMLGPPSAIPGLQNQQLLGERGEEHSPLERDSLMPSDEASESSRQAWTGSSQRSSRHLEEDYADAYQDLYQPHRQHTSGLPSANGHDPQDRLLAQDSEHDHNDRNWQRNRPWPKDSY
Sequence of calcium channel (type N) (P54290 25-944 partner limits assumed): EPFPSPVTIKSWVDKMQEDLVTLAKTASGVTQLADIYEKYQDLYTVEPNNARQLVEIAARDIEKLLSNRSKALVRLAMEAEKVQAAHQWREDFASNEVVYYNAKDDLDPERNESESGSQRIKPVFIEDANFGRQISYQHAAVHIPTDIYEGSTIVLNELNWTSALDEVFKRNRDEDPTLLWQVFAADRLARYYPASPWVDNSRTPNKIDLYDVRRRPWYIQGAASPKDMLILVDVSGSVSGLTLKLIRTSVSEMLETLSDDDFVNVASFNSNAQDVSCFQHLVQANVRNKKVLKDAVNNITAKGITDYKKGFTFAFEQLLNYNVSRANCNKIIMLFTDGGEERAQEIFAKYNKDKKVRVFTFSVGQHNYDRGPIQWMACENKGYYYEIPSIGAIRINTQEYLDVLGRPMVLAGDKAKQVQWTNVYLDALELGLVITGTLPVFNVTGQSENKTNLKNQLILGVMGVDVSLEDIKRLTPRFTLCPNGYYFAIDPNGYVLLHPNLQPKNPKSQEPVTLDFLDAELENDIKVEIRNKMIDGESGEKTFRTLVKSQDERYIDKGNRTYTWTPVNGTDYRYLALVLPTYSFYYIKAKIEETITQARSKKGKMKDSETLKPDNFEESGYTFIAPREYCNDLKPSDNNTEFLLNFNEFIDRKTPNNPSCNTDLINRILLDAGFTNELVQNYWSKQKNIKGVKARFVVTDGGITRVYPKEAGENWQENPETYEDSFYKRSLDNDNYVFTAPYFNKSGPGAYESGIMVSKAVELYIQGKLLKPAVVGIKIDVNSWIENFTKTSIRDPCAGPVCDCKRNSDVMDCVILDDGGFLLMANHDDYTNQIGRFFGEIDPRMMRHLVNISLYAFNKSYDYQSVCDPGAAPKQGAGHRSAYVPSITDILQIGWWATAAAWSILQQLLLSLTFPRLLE
Sequence of calcium channel (type N) (P54290 945-1091 partner limits assumed): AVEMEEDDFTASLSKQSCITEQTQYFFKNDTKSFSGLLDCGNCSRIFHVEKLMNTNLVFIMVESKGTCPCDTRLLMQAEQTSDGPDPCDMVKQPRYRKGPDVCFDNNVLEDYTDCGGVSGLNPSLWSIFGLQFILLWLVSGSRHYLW
Description: as §1

[1] = target: potassium channel [KA], [KV] or [SKCa]; assay: Potassium channel receptor binding; details: read-out: K** (IC50)
Description: as §1

Sequence of opioid (μ) receptor (P35372 whole entry): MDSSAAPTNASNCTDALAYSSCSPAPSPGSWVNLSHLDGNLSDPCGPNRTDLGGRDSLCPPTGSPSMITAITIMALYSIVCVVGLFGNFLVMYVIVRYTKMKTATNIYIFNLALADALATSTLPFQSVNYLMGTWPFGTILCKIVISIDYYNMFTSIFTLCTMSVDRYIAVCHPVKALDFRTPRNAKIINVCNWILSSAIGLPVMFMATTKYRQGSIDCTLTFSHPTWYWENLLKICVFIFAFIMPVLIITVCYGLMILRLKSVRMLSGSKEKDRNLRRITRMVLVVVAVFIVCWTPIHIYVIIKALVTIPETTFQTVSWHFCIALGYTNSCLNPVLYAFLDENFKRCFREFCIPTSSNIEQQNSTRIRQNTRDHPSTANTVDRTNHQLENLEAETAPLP

SMILES	IC50 (opioid (μ) receptor) [nM]	IC50 (sodium channel (site 2)) [nM]	IC50 (calcium channel (type N)) [nM]	IC50 [1] [nM]
CN(CC(NC(=O)Nc1ccc(OC(F)(F)F)cc1)C(C)(C)C)C1CCN(Cc2ccccc2)C1 (centres unmarked) [Compound 11, 1-(1-{[(1-Benzyl-pyrrolidin-3-yl)-methyl-amino]-methyl}-2,2-dimethyl-propyl)-3-(4-trifluoromethoxy-phenyl)-urea]	> 1000	< 100	> 1000	> 1000
CN(C)C[C@H](Cc1ccccc1)NC(=O)[C@@H](NC(=O)Nc1cccc(C(F)(F)F)c1)C(C)(C)C [Compound 18, N-(1-Benzyl-2-dimethylamino-ethyl)-3,3-dimethyl-2-[3-(3-trifluoromethyl-phenyl)-ureido]-butyramide]	< 100	< 1000	> 1000	> 1000
CN(C)CCN(Cc1ccccc1)C(=O)[C@@H](NC(=O)Nc1cccc(C(F)(F)F)c1)C(C)(C)C [Compound 16, N-Benzyl-N-(2-dimethylamino-ethyl)-3,3-dimethyl-2-[3-(3-trifluoromethyl-phenyl)-ureido]-butyramide]	> 1000	< 1000	> 1000	–
CN(C)CCN(Cc1ccccc1)C(=O)[C@@H](NC(=O)Nc1ccc(OC(F)(F)F)cc1)C(C)(C)C [Compound 17, N-Benzyl-N-(2-dimethylamino-ethyl)-3,3-dimethyl-2-[3-(4trifluoromethoxy-phenyl)-ureido]-butyramide]	> 1000	< 100	> 1000	–
CN(C(=O)C(NC(=O)Nc1cccc(C(F)(F)F)c1)C(C)(C)C)C1CCN(Cc2ccccc2)C1 (centres unmarked) [Compound 8, N-(1-Benzyl-pyrrolidin-3-yl)-3,3,N-trimethyl-2-[3-(3-trifluoromethyl-phenyl)-ureido]-butyramide]	> 1000	< 100	> 1000	> 1000
CN(CC(NC(=O)Nc1cccc(C(F)(F)F)c1)C(C)(C)C)C1CCN(Cc2ccccc2)C1 (centres unmarked) [Compound 9, 1-(1-{[(1-Benzyl-pyrrolidin-3-yl)-methyl-amino]-methyl}-2,2-dimethyl-propyl)-3-(3-trifluoromethyl-phenyl)-urea]	> 1000	< 100	> 1000	> 1000
CN(C(=O)C(NC(=O)Nc1ccc(OC(F)(F)F)cc1)C(C)(C)C)C1CCN(Cc2ccccc2)C1 (centres unmarked) [Compound 10, N-(1-Benzyl-pyrrolidin-3-yl)-3,3,N-trimethyl-2-[3-(4-trifluoromethoxy-phenyl)-ureido]-butyramide]	> 1000	< 1000	> 1000	> 1000
CC(C)(C)[C@@H](CN[C@H](CN)Cc1ccccc1)NC(=O)Nc1cccc(C(F)(F)F)c1 [Compound 5, 1-{1-[(2-Amino-1-benzyl-ethylamino)-methyl]-2,2-dimethy-propyl}-3-(3-trifluoromethyl-phenyl)-urea]	> 1000	< 100	> 1000	> 1000
CN(C)CCN(Cc1ccccc1)C(=O)[C@@H]1CCCN1C(=O)Nc1ccc(OC(F)(F)F)cc1 [Compound 22, Pyrrolidine-1,2-dicarboxylic acid 2-[benzyl-(2-dimethylamino-ethyl)-amide] 1-[(4-trifluoromethoxy-phenyl)-amide]]	–	< 1000	> 1000	–
CC(C)(C)[C@H](NC(=O)Nc1cccc(C(F)(F)F)c1)C(=O)N[C@@H](Cc1ccccc1)C(=O)N1CCNCC1 [Compound 15, N-(1-Benzyl-2-oxo-2-piperazin-1-yl-ethyl)-3,3-dimethyl-2-[3-(3-trifluoromethyl-phenyl) -ureido]-butyramide]	> 1000	> 1000	> 1000	–
CC(C)(C)C(NC(=O)Nc1cccc(C(F)(F)F)c1)C(=O)NC(CN)Cc1ccccc1 (centres unmarked) [Compound 4, N-(2-Amino-1-benzyl-ethyl)-3,3-dimethyl-2-[3-(3-trifluoromethyl-phenyl)ureido]-butyramide]	< 100	< 100	> 1000	> 1000
CC(C)(C)[C@H](NC(=O)Nc1ccc(OC(F)(F)F)cc1)C(=O)N[C@H]1CCN(Cc2ccccc2)C1 [Compound 19, N-(1-Benzyl-pyrrolidin-3-yl)-3,3-dimethyl-2-[3-(4-trifluoromethoxy-phenyl)-ureido]-butyramide]	> 1000	< 1000	> 1000	–

Continued, values first:

IC50 (opioid (μ) receptor) [nM]	IC50 (sodium channel (site 2)) [nM]	IC50 (calcium channel (type N)) [nM]	IC50 [1] [nM]	SMILES
> 1000	< 100	> 1000	> 1000	O=C(NC1CCN(Cc2ccccc2)CC1)[C@@H]1Cc2ccccc2CN1C(=O)Nc1ccc(OC(F)(F)F)cc1 [Compound 3f, 3,4Dihydro-1H-isoquinoline-2,3-dicarboxylic acid 3-(S)-[(1-benzyl-piperidin-4-yl)-amide] 2-[(4-trifluoromethoxy-phenyl)-amide]]
> 1000	< 1000	> 1000	> 1000	CC(C)(C)[C@H](NC(=O)Nc1cc(F)ccc1F)C(=O)N[C@@H]1CCN(Cc2ccccc2)C1 [Compound 3d, N-(1-Benzyl-pyrrolidin-3-(R)-yl)-2-(S)-[3-(2,5-difluoro-phenyl)-ureido]-3,3-dimethyl-butyramide]
> 1000	< 100	> 1000	> 1000	CN(C)CCN(Cc1ccccc1)C(=O)[C@@H]1Cc2ccccc2CN1C(=O)Nc1ccc(OC(F)(F)F)cc1 [Compound 3h, 3,4-Dihydro-1H-isoquinoline-2,3-dicarboxylic acid 3-(S)-[benzyl-(2-dimethylamino-ethyl)-amide] 2-[(4-trifluoromethoxy-phenyl)-amide]]
> 1000	< 1000	> 1000	> 1000	CC(C)(C)[C@H](NC(=O)Nc1cccc(C(F)(F)F)c1)C(=O)N[C@@H]1CCN(Cc2ccccc2)C1 [Compound 3a, N-(1-Benzyl-pyrrolidin-3-(R)-yl)-3,3-dimethyl-2-(S)-[3-(3-trifluoromethyl-phenyl)-ureido]-butyramide]
> 1000	< 100	> 1000	> 1000	O=C(NC1CCN(Cc2ccccc2)CC1)[C@@H]1Cc2ccccc2CN1C(=O)Nc1cccc(C(F)(F)F)c1 [Compound 3e, 3,4-Dihydro-1H-isoquinoline-2,3-dicarboxylic acid 3-(S)-[(1-benzyl-piperidin-4-yl)-amide] 2-[(3-trifluoromethyl-phenyl)-amide]]
> 1000	< 1000	> 1000	> 1000	CC(C)(C)[C@H](NC(=O)Nc1cc(F)ccc1F)C(=O)N[C@H]1CCN(Cc2ccccc2)C1 [Compound 3c, N-(1-Benzyl-pyrrolidin-3-(S)-yl)-2-(S)-[3-(2,5-difluoro-phenyl)-ureido]-3,3-dimethyl-butyramide]
< 1000	< 100	> 1000	> 1000	CC(C)(C)[C@H](NC(=O)Nc1cccc(C(F)(F)F)c1)C(=O)N[C@H]1CCN(Cc2ccccc2)C1 [Compound 3b, N-(1-Benzyl-pyrrolidin-3-(S)-yl)-3,3-dimethyl-2-(S)-[3-(3-trifluoromethyl-phenyl)-ureido]-butyramide]
> 1000	< 100	> 1000	> 1000	CN(C)CCN(Cc1ccccc1)C(=O)[C@@H]1Cc2ccccc2CN1C(=O)Nc1cccc(C(F)(F)F)c1 [Compound 3g, 3,4-Dihydro-1H-isoquinoline-2,3-dicarboxylic acid 3-(S)-[benzyl-(2-dimethylamino-ethyl)-amide] 2-[(3-trifluoromethyl-phenyl)-amide]]
